Experimental data published in EP0279357A2, “Composition for the treatment of coronary diseases or organic brain syndrome” (BOEHRINGER INGELHEIM KG, priority 1987, dated 1988).

Experiments:
[1] = test system: myocardiale Radiocalciumaufnahme; assay: Inhibition of isoprenaline-induced myocardial radiocalcium uptake in conscious rats after oral dosing (method of Arndts); format: in vivo, Ratten; details: Rattus norvegicus, oral dose that inhibits by 50 % the myocardial radiocalcium uptake caused by 30 mg/kg s.c. Isoprenalin, read-out: H50
Text: 1. Bekanntlich ist der myocardiale Ca²⁺ Gehalt ein Maß für die hypoxische bzw. die durch toxische Catecholamindosen hervorgerufene Herzschädigung (Higgins et al. Mol. Cell. Cardiol. 10. 427-438, 1984; Nakanishi et. al., Am. J. Physiol. 242, 437-449, 1982; Fleckenstein A., Vorträge der Erlanger Physiol. Tagung 1970, Edit. Keidel, Springer Verl. Berlin; Heidelberg, New York, 1971). Umgekehrt ist die Inhibition der hypoxischen oder Isoprenalin-bedingten myocardialen Calciumaufnahme ein Maß für die cardioprotektive Effektivität von Calciumantagonisten (Fleckenstein s.o), von Calmodulinhibitoren (Higgins s.o.) und anderen Pharmaka, z.B. Betaadrenolytika (Arndts, Arzneimittelforschung, 25, 1279-1284 (1975)). Die cardioprotektive Wirkung wurde an wachen Ratten nach oraler Wirkstoffgabe anhand der von Arndts (s.o.) beschriebenen Methoden festgestellt und die Wirkungsstärke der Testsubstanzen als H₅₀-Werte angegeben; dieser Wert entspricht der Dosis, die die durch eine Gabe von 30 mg/kg s.c. Isoprenalin bedingte myocardiale Radiocalciumaufnahme bis 50 % hemmt. Hier erwiesen sich die vorliegenden Verbindungen als wirksamer als die bekannten Handelsprodukte Captopril und Enalapril. Die Ergebnisse sind in Tabelle I dargestellt.

[2] = test system: Mäusen (ChbI:NMRI); assay: Scopolamine test: passive avoidance reaction in mice; format: in vivo
Text: Durch den cholinerg-muskarinen Antagonisten Scopolamin wird bei Mensch und Tier eine vorübergehende Störung des Überganges von Inhalten des Kurzzeitgedächtnisses in das Langzeitgedächtnis hervorgerufen. Die auch klinisch bei gesunden Probanden durch Scopolamin auslösbaren, mnestischen Störungen sind in ihrer Ausprägung den psychopathologischen Veränderungen bei Patienten mit organischem Hirnsyndrom ähnlich (Drachman & Leavitt, 1974).
Der Scopolamin-Test wird an Gruppen von jeweils 10 männlichen, nicht nüchternen, naiven Mäusen (ChbI:NMRI; Körpergewicht 35 g) mit Hilfe einer passiven Vermeidereaktion durchgeführt. Das Testgerät besteht aus einer Skinner Box (30 cm × 26 cm × 29 cm) mit einem elektrifizierbaren Gitterboden und einer Plastikplattform (5 cm × 5 cm) an einer Seitenwand. Die Tiere werden einzeln in die Skinner Box gesetzt. Nach einer Orientierungsperiode von 30 sec werden kurze, unterbrochene Stromstöße von ca. 0,8 mA so oft an den Gitterboden der Box gelegt, bis das Tier gelernt hat, daß das Aufsuchen und Verweilen auf der Plastikplattform vor dem Stromstoß Sicherheit gewährt. Tiere, welche dies innerhalb von 120 sec nicht lernen, werden nicht weiter verwendet. Die anderen Mäuse werden unmittelbar nach Erlernen der passiven Vermeidereaktion in drei Gruppen (10 Tiere pro Gruppe) eingeteilt. Eine Gruppe erhält Scopolaminhydrobromid (0,6 mg/kg s.c.) und oral Vehikel (0,5 % Tylose); die zweite Gruppe Scopolaminhydrobromid sowie die zu testende Substanz per os in 0,5 % Tylose und die dritte Gruppe lediglich 0,5 % Tylose p.o.. Eine Stunde nach Application wird jedes Tier einzeln auf die Plattform gesetzt, um das Erinnerungsvermögen an die erlernte Vermeidereaktion zu prüfen. Das Kriterium besteht in der Bestimmung, ob die Maus während mindestens 60 sec. auf der Plattform verbleibt (Ja-Antwort) oder nicht (Nein-Antwort).
Etwa 75% der Tiere, welche ausschließlich mit 0,5 % Tylose behandelt wurden, verbleiben bei der abschließenden Prüfung länger als 60 sec. auf der Plattform: ein Ergebnis, welches als Ausdruck des guten Erinnerungsvermögens an die erlernte Erfahrung gedeutet werden kann. Nach Gabe von Scopolamin und Tylose verbleiben durchschnittlich etwa 25 % der Tiere auf der Plattform; dies zeigt die erhebliche Beeinträchtigung des Erinnerungsvermögens nach Gabe von Scopolamin. Verbindungen der Formel I antagonisieren die Scopolaminwirkung statistisch signifikant. Zum Beispiel ist die oben genannte Verbindung A (N-[N-(1-L-Ethoxycarbonyl-3-phenylpropyl)-L-alanyl]-4,5,6,7-tetrahydro-thieno[2,3-c]-pyridin-7-L-carbonsäure) bei einer Dosis über 0,1 mg/kg p.o. (insbesondere ab 0,5 mg/kg p.o.) wirksam. In Gegensatz dazu sind Captopril bei Dosen von 10 und 30 mg/kg p.o. und Enalapril bei einer Dosis von 5 mg/kg p.o. unwirksam.

[3] = test system: Ca²⁺-Efflux an der Kaninchen-Aorta; assay: Stimulated Ca2+ efflux in rabbit aorta (method of van Breemen et al. / Casteels and Droogman); format: cell-based; details: Oryctolagus cuniculus, read-out: Hemmung des durch 10⁻⁵ mol/l Noradrenalin stimulierten Ca²⁺ Efflux
Text: (§1) 2. In einer weiteren Testanordnung wurde die Wirkung und der Mechanismus der Verbindungen auf die Ca²⁺-Fluxe wie folgt nachgewiesen: Die Bestimmung des Ca²⁺-Efflux wurde nach der Methode von C. van Breemen, P. Aarsonson, R. Loutzenheiser und K. Meisheri (Chest 78, 157S-165S (1980) und von R. Casteels und G.Droogman (J.Physiol. 317, 263-276 (1981)) durchgeführt. Mit dem Ca²⁺-Efflux wird die intrazelluläre Ca²⁺-Freisetzung auf eine Rezeptorstimulation gemessen. Damit ist eine quantitative Beurteilung des Ausmaßes der Rezeptor-vermittelten Wirkung möglich.
(§2) Untersuchungen zum Ca²⁺-Efflux an der Kaninchen-Aorta ergaben, daß die Verbindungen der Formel I den durch Kaliumionen und Noradrenalin stimulierten Ca²⁺-Efflux hemmen.
(§3) Versuche mit der oben genannten Verbindung A (N-[N-(1-L-Ethoxycarbonyl-3-phenylpropyl)-L-alanyl]4,5,6,7-tetrahydro-thieno[2,3-c]pyridin-7-L-carbonsäure ergaben: Die Hemmung des durch 10⁻⁵ mol/l Noradrenalin stimulierten Ca²⁺ Efflux liegt bei 25, 24 und 30 % mit der oben angeführten Verbindung A in den entsprechenden Konzentrationen 10⁻⁶, 10⁻⁵ und 10⁻⁴ mol/l. Das weist auf eine grundsätzlich nur partielle Hemmung hin. Der Ca²⁺-Influx durch K⁺ Depolarisation wird zu 38% gehemmt (10⁻⁵ mol/l der Verbindung A).

[4] = test system: Ca²⁺-Influx durch K⁺ Depolarisation; assay: Ca2+ influx by K+ depolarisation; format: cell-based, Kaninchen; details: Oryctolagus cuniculus; compound 10⁻⁵ mol/l; read-out: Hemmung des Ca²⁺-Influx durch K⁺ Depolarisation
Text: as §1, §2, §3

[5] = test system: ischämischen Langendorff-Herzen; assay: Ischaemic Langendorff heart, recovery of regular contractions after reperfusion (in vitro or ex vivo); details: ischaemic Langendorff hearts
Text: Hieraus läßt sich eine protektive Wirksamkeit der Substanzen auf Herzschädigungen während Hypoxie oder Ischämie ableiten.

| SMILES | ED50 [1] [mg/kg] | Wiederauftreten regelmäßiger Kontraktionen nach Reperfusion [5] | other results |
| --- | --- | --- | --- |
| CCOC(=O)[C@H](CCc1ccccc1)N[C@@H](C)C(=O)N1CCc2ccsc2[C@H]1C(=O)O [A, N-[N-(1-L-Ethoxycarbonyl-3-phenylpropyl)-L-alanyl]-4,5,6,7-tetrahydro-thieno[2,3-c]pyridin-7-L-carbonsäure] | 0.63 | zeitliche Verkürzung des Wiederauftretens regelmäßiger Kontraktionen | Antagonismus der Scopolaminwirkung ([2]; dose above 0,1 mg/kg p.o. (especially from 0,5 mg/kg p.o.)): wirksam; inhibition at 100 µM ([3]; compound 10⁻⁴ mol/l): 30%; inhibition at 10 µM ([3]; compound 10⁻⁵ mol/l): 24%; inhibition at 1 µM ([3]; compound 10⁻⁶ mol/l): 25%; inhibition at 10 µM [4]: 38% |
| CC(CS)C(=O)N1CCC[C@@H]1C(=O)O (stereo partly drawn) [Captopril, D-2-Methyl-3-mercaptopropanoyl-L-prolin] | 1.52 | deutlich schwächer | Antagonismus der Scopolaminwirkung ([2]; 10 mg/kg p.o.): unwirksam; Antagonismus der Scopolaminwirkung ([2]; 30 mg/kg p.o.): unwirksam |
| C[C@H](N[C@@H](CCc1ccccc1)C(=O)O)C(=O)N1Cc2nc[nH]c2C[C@H]1C(=O)O [D, N-[N-(1-L-Carboxy-3-phenylpropyl)-L-alanyl]-4,5,6,7-tetrahydro-1H-imidazo[4,5-c]pyridin-6-L-carbonsäure] | 1.32 |  |  |
| C[C@H](N[C@@H](CCc1ccccc1)C(=O)O)C(=O)N1Cc2ccsc2C[C@H]1C(=O)O [E, N-[N-(1-L-Carboxy-3-phenylpropyl)-L-alanyl]-4,5,6,7-tetrahydro-thieno[3,2-c]pyridin-6-L-carbonsäure] | 1.1 |  |  |
| CCOC(=O)[C@H](CCc1ccccc1)N[C@@H](C)C(=O)N1CCC[C@H]1C(=O)O [Enalapril, 1-N-[(S)-1-Ethoxycarbonyl-3-phenylpropyl]-S-alanyl-S-prolin] | 1.59 | deutlich schwächer | Antagonismus der Scopolaminwirkung ([2]; 5 mg/kg p.o.): unwirksam |
